Measurements: PubChem BioAssay (NCI)
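The concentration for 50% growth inhibition is given as GI50. TGI: concentration producing complete growth inhibition.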

Assays:
Experiment in all cases: inhibition of tumour cell growth, NCI panel, 384-well format
PC-3 prostate = system: PC-3 prostate
RPMI-8226 leukemia = system: RPMI-8226 leukemia
M14 melanoma = system: M14 melanoma
OVCAR-3 ovarian = system: OVCAR-3 ovarian
RXF 393 renal = system: RXF 393 renal
SK-MEL-28 melanoma = system: SK-MEL-28 melanoma
SF-539 CNS = system: SF-539 CNS
MDA-MB-231 breast = system: MDA-MB-231 breast
SK-MEL-5 melanoma = system: SK-MEL-5 melanoma
MDA-MB-435 melanoma = system: MDA-MB-435 melanoma
OVCAR-4 ovarian = system: OVCAR-4 ovarian
786-0 renal = system: 786-0 renal
SR leukemia = system: SR leukemia
LOX IMVI melanoma = system: LOX IMVI melanoma
NCI-H460 NSCLC = system: NCI-H460 NSCLC
EKVX NSCLC = system: EKVX NSCLC
HT29 colon = system: HT29 colon
NCI-H23 lung = system: NCI-H23 lung
U251 glioblastoma = system: U251 glioblastoma
HS 578T breast = system: HS 578T breast
CCRF-CEM leukemia = system: CCRF-CEM leukemia
A498 renal = system: A498 renal
SNB-75 CNS = system: SNB-75 CNS
UACC-257 melanoma = system: UACC-257 melanoma
NCI-H322M lung = system: NCI-H322M lung
OVCAR-8 ovarian = system: OVCAR-8 ovarian
MCF7 breast = system: MCF7 breast
HCT-116 colon = system: HCT-116 colon
BT-549 breast = system: BT-549 breast
KM12 colon = system: KM12 colon
COLO 205 colon = system: COLO 205 colon
HCC-2998 colon = system: HCC-2998 colon
HOP-62 NSCLC = system: HOP-62 NSCLC
SK-OV-3 ovarian = system: SK-OV-3 ovarian
A549 NSCLC = system: A549 NSCLC
IGROV1 ovarian = system: IGROV1 ovarian
HCT-15 colon = system: HCT-15 colon
TK-10 renal = system: TK-10 renal
SN12C renal = system: SN12C renal
HL-60(TB) leukemia = system: HL-60(TB) leukemia
K-562 leukemia = system: K-562 leukemia
MALME-3M melanoma = system: MALME-3M melanoma
UACC-62 melanoma = system: UACC-62 melanoma
SNB-19 CNS = system: SNB-19 CNS
MDA-MB-468 breast = system: MDA-MB-468 breast
MOLT-4 leukemia = system: MOLT-4 leukemia
SF-268 CNS = system: SF-268 CNS
SK-MEL-2 melanoma = system: SK-MEL-2 melanoma
NCI/ADR-RES ovarian = system: NCI/ADR-RES ovarian

In the case of CN(c1ncccc1CNc1nc(Nc2ccc3c(c2)CC(=O)N3)ncc1C(F)(F)F)S(C)(=O)=O, the GI50 (PC-3 prostate) is reported as 2510 nM, the TGI (PC-3 prostate) is reported as greater than 100000 nM and the GI50 (RPMI-8226 leukemia) is reported as 1660 nM. It also gave a TGI (RPMI-8226 leukemia) of 3030 nM, a GI50 (M14 melanoma) of 1750 nM and a TGI (M14 melanoma) of 4240 nM. It also gave a GI50 (OVCAR-3 ovarian) of 2000 nM, a TGI (OVCAR-3 ovarian) of 4740 nM and a GI50 (RXF 393 renal) of 1200 nM. It also gave a TGI (RXF 393 renal) of 2690 nM, a GI50 (SK-MEL-28 melanoma) of 1850 nM and a TGI (SK-MEL-28 melanoma) of 4200 nM. The GI50 (SF-539 CNS) was 1860 nM, the TGI (SF-539 CNS) was 3700 nM and the GI50 (MDA-MB-231 breast) was 2550 nM. The TGI (MDA-MB-231 breast) was greater than 100000 nM, the GI50 (SK-MEL-5 melanoma) was 1630 nM and the TGI (SK-MEL-5 melanoma) was 3110 nM. The GI50 (MDA-MB-435 melanoma) was 2290 nM, the TGI (MDA-MB-435 melanoma) was 7700 nM and the GI50 (OVCAR-4 ovarian) was 2480 nM. It also gave a TGI (OVCAR-4 ovarian) of 8640 nM, a GI50 ([…]-0 renal) of 2440 nM and a TGI (786-0 renal) of 7780 nM. The GI50 (SR leukemia) was 501 nM, the TGI (SR leukemia) was 1670 nM and the GI50 (LOX IMVI melanoma) was 1540 nM. The TGI (LOX IMVI melanoma) was 3580 nM, the GI50 (NCI-H460 NSCLC) was 1610 nM and the TGI (NCI-H460 NSCLC) was 3290 nM. For the same compound, the GI50 (EKVX NSCLC) was 1490 nM, the TGI (EKVX NSCLC) was 4170 nM and the GI50 (HT29 colon) was 3740 nM. The TGI (HT29 colon) was greater than 100000 nM, the GI50 (NCI-H23 lung) was 1790 nM and the TGI (NCI-H23 lung) was 3340 nM. The GI50 (U251 glioblastoma) was 2880 nM, the TGI (U251 glioblastoma) was greater than 100000 nM and the GI50 (HS 578T breast) was 1620 nM. For the same compound, the TGI (HS 578T breast) was 3700 nM, the GI50 (CCRF-CEM leukemia) was 1710 nM and the TGI (CCRF-CEM leukemia) was 3330 nM. The GI50 (A498 renal) was 2910 nM, the TGI (A498 renal) was greater than 100000 nM and the GI50 (SNB-75 CNS) was 1550 nM. For the same compound, the TGI (SNB-75 CNS) was 3600 nM, the GI50 (UACC-257 melanoma) was 2010 nM and the TGI (UACC-257 melanoma) was 4340 nM. For the same compound, the GI50 (NCI-H322M lung) was 2010 nM, the TGI (NCI-H322M lung) was 4450 nM and the GI50 (OVCAR-8 ovarian) was 3310 nM. For the same compound, the TGI (OVCAR-8 ovarian) was greater than 100000 nM, the GI50 (MCF7 breast) was 1020 nM and the TGI (MCF7 breast) was 8250 nM. It also gave a GI50 (HCT-116 colon) of 1890 nM, a TGI (HCT-116 colon) greater than 100000 nM and a GI50 (BT-549 breast) of 1740 nM. For the same compound, the TGI (BT-549 breast) was 3880 nM, the GI50 (KM12 colon) was 218 nM and the TGI (KM12 colon) was 1720 nM. It also gave a GI50 (COLO 205 colon) of 1460 nM, a TGI (COLO 205 colon) of 4280 nM and a GI50 (HCC-2998 colon) of 1190 nM. The TGI (HCC-2998 colon) was 3210 nM, the GI50 (HOP-62 NSCLC) was 1970 nM and the TGI (HOP-62 NSCLC) was 7830 nM. The GI50 (SK-OV-3 ovarian) was 3100 nM, the TGI (SK-OV-3 ovarian) was greater than 100000 nM and the GI50 (A549 NSCLC) was 3150 nM. It also gave a TGI (A549 NSCLC) greater than 100000 nM, a GI50 (IGROV1 ovarian) of 2420 nM and a TGI (IGROV1 ovarian) greater than 100000 nM. For the same compound, the GI50 (HCT-15 colon) was 3810 nM, the TGI (HCT-15 colon) was 17000 nM and the GI50 (TK-10 renal) was 2790 nM. For the same compound, the TGI (TK-10 renal) was greater than 100000 nM, the GI50 (SN12C renal) was 2400 nM and the TGI (SN12C renal) was 5720 nM. For the same compound, the GI50 (HL-60(TB) leukemia) was 1700 nM, the TGI (HL-60(TB) leukemia) was 3090 nM and the GI50 (K-562 leukemia) was 2830 nM. The TGI (K-562 leukemia) was greater than 100000 nM, the GI50 (MALME-3M melanoma) was 2200 nM and the TGI (MALME-3M melanoma) was 4940 nM. For the same compound, the GI50 (UACC-62 melanoma) was 1390 nM, the TGI (UACC-62 melanoma) was 2860 nM and the GI50 (SNB-19 CNS) was 3390 nM. The TGI (SNB-19 CNS) was greater than 100000 nM, the GI50 (MDA-MB-468 breast) was 1850 nM and the TGI (MDA-MB-468 breast) was 3380 nM. For the same compound, the GI50 (MOLT-4 leukemia) was 431 nM, the TGI (MOLT-4 leukemia) was 1300 nM and the GI50 (SF-268 CNS) was 1820 nM. It also gave a TGI (SF-268 CNS) of 3990 nM, a GI50 (SK-MEL-2 melanoma) of 1850 nM and a TGI (SK-MEL-2 melanoma) of 3580 nM. For the same compound, the GI50 (NCI/ADR-RES ovarian) was 26000 nM and the TGI (NCI/ADR-RES ovarian) was 95600 nM.
